Series [1] concerns HCV RNA in NS and FL replicons after BVR siRNA. The series is classed as cell-based. Particulars: BV 20 μM or BR 100 μM overnight, both replicon lines, vs scrambled RNA. The protocol:
Quantitative Real-time RT-PCR. Total RNA was extracted from cells using Trizol reagent (Invitrogen, Carlsbad, Calif.), treated with Turbo RNase free DNase (Ambion, TX), and processed as described (Zhu et al., 2008). To assess replication, the primers and probe designed by Takeuchi et al. (1999) targeting sequences located in 5′UTR (nt130-290) were employed as described for each replicon line (Blight et al., 2002; Lohmann et al., 2003). Real-time RT-PCR was performed using Taq DNA polymerase with the TaqMan Universal PCR Master Mix Protocol (Perkin Elmer Applied Biosystems, Foster City, Calif.). Quantitation was performed using the comparative cycle threshold (ΔCT) method as described previously (Abdalla et al., 2004).
Biliverdin reductase (BVR) knockdown. Biliverdin reductase (BVR) siRNA and control (scrambled) siRNA were purchased from Santa Cruz Biotechnology (sc-44650 and sc-37007). BVR knockdown was performed as described previously (Ryter et al., 2007). Efficiency of the knockdown was monitored by semiquantitative densitometry of BVR WB.

For series [2] the following is noted: in vivo; cited from earlier work.
In series [3] the target is T1, HCV NS3/4A recombinant protease (UniProt O92972).
T1 construct: other: recombinant protease, 591 nm/622 nm FRET peptide, regression analysis; other: recombinant NS3/4A, Lineweaver-Burk; other: BV versus BR; effect o; fused on or other part: By knowledge of the vendor's product, the NS4A cofactor segment of the same polyprotein is fused to the N-terminus of the NS3 protease domain
T1 sequence (O92972 1027-1657): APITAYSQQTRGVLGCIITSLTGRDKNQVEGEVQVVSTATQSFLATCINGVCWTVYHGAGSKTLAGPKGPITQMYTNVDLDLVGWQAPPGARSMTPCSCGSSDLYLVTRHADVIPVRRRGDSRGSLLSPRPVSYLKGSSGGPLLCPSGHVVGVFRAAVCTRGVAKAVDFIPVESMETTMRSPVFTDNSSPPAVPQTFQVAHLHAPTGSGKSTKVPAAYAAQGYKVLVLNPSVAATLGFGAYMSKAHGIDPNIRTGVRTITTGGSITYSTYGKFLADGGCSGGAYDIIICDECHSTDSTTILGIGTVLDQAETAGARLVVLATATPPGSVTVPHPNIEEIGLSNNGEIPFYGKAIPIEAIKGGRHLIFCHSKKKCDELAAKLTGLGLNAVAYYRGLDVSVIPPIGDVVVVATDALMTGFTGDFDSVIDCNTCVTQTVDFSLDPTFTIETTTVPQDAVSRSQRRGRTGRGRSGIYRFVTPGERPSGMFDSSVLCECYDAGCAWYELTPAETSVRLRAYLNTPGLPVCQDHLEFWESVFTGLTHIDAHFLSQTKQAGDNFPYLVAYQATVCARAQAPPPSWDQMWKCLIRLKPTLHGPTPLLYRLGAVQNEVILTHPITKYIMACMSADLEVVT
It is filed as biochemical. Particulars: for Ki: recombinant NS3/4A, Lineweaver-Burk. How it is done: In vitro assay of HCV NS3/4A recombinant protease. Protease activity was determined fluorometrically with the SensoLyte 620 HCV Protease Assay (AnaSpec, Fremont, Calif.) using a wide wavelength excitation/emission (591 nm/622 nm respectively) fluorescence energy transfer peptide according to the manufacturer's instructions. Control incubations with BV or metabolite only were performed to eliminate or correct for autofluorescence or quenching. A competitive inhibitor of the NS3/4A protease, AnaSpec #25346, was used as positive control.

The subject of a further series is vascular injury. Particulars: rats, 50 mg/kg; cited from earlier work.

“And” between values parts separate entries of the source, which are not always exact repeats. Equal entries are not always repeated. Structures can show the parent of a compound that is named as a salt. Where two headings read alike, the source gives them in different places.

As to `C=CC1=C(C)/C(=C/C2=NC(=C\c3[nH]c(/C=C4\NC(=O)C(C)=C4C=C)c(C)c3CCC(=O)O)/C(CCC(=O)O)=C2C)NC1=O` [Biliverdin, biliverdin-IX-α hydrochloride], the “effect of BVR knockdown on antiviral activity (HCV RNA)” value in series [1] is given as “significantly enhanced”. Besides, the oral bioavailability entry in series [2] is reported as “relatively poor oral bioavailability”. The “difference in IC50 of BV and BR for the NS3/4a protease” value in series [3] (BV versus BR) is “at least 10 fold”. Besides, the “mode of inhibition of NS3/4A protease” value in series [3] (Lineweaver-Burk and secondary plots) was “both noncompetitive and competitive inhibitor activity”. In series [3] (both BV and #25346 present), the “effect of BV together with #25346 on protease activity” value is given as “additive effect”. In addition, in series [3] (read-out: IC50, inhibition of HCV NS3/4A protease, recombinant protease, 591 nm/622 nm FRET peptide, regression analysis, listed as BV, hydrochloride), the IC50 is 9.3 µM and 9 µM. The Ki in series [3] (read-out: Ki (competitive), secondary plot Km/V vs [BV]) worked out at 0.6 µM; in series [3] (read-out: Ki′ (noncompetitive), secondary plot 1/Vap vs [BV]), 1.1 µM. The vascular injury entry in the series with vascular injury was “prevented vascular injury”.
